System: 885724-159-R-J1-PDC complex spheroid viability
Test: Anticancer human tumor 885724-159-R-J1-PDC patient-derived pancreatic adenocarcinoma cell line growth inhibition [GQUAD]
Settings: for IC50: curve of first compound; for viability, T/C: stronger effect = lower value
Source text: DNA G-quadruplex Stabilizer Agents in Combinations in Complex Spheroids
A high-throughput screen of multi-cell type tumor spheroids was designed to identify active combinations of DNA G-quadruplex stabilizer agents and targeted small molecules. Complex spheroids include a stromal component modeled by human endothelial cells (HUVEC) and fibroblasts modeled by human mesenchymal stem cells (MSCs). The concentration ranges selected for each drug and investigational agent were based upon clinically achievable concentrations if the clinical Cmax of the agent was known.
Compounds. The drugs and investigational agents: pidnarulex (CX-5461; NSC782164), APTO-253 (NSC789042), BRACO-19 (NSC847499), peposertib (NSC802822), ceralasertib (NSC780249), elimusertib (NSC800525), camonsertib (NSC841442), AZD-1390 (NSC803789), olaparib (NSC753686), talazoparib (NSC767125), ART-558 (NSC835418), sotorasib (NSC818433), MRTX-1133 (NSC836407), SN-38 (NSC673596), topotecan (NSC609699), etoposide (NSC141540), doxorubicin (NSC123127), gemcitabine (NSC613327), 5-fluorouracil (NSC19893), paclitaxel (NSC125973), vemurafenib (NSC761431), panobinostat (NSC761190), R-306465 (JNJ-16241199; NSC773264), adavosertib (NSC754352), TP-3654 (NSC805149), carboplatin (NSC241240), KSQ-4279 (NSC840948), and staurosporine (NSC755774) were obtained from the National Cancer Institute (NCI) Developmental Therapeutics Program Chemical Repository (34). The FDA-approved anticancer drug set is available from the NCI Developmental Therapeutics Program. […] The stock solutions were prepared in dimethyl sulfoxide (DMSO, Sigma-Aldrich, St. Louis, MO, cat. D2650) at 800-fold the tested concentration and stored at -70 degrees C prior to their use. All drugs and investigational agents were tested over a range starting from a high concentration at or near the clinical Cmax and decreasing in half-log increments. If the clinical Cmax for an agent had not been determined, the highest concentration tested was 10 microM.
2.3 Cell Culture. All cells were maintained in an incubator at 37 degrees C and 5% CO2 with 95% humidity. The PDC lines were cultured according to standard operating procedures established by the NCI PDMR. All PDCs were thawed and cultured in Matrigel-coated flasks prepared with a working solution of 1X Ham's F-12 nutrient mix, without supplementation (Invitrogen, cat. 11765054), 100 U/mL penicillin-streptomycin (Invitrogen, cat. 15140122), and 2.5% Matrigel (Corning Inc., cat. 354248) for the first three passages. The 857933-349-R-J2-PDC line was cultured in 6C/Colon 1B media, which includes advanced DMEM/F-12 (Thermo Fisher Scientific, cat. 12634028), 10 mM HEPES (Thermo Fisher Scientific, cat. 15630080), 1X GlutaMAX supplement (Thermo Fisher Scientific, cat. 35050061), 0.1 mg/mL primocin (InvivoGen, cat. ant-pm-2), 10% defined fetal bovine serum, heat inactivated (HyClone Laboratories Inc., cat. SH30070.03HI), 50% L-WRN conditioned media (ATCC, cat. CRL-3276), 1.25 mM N-Acetyl-L-cysteine (Sigma-Aldrich, cat. A9165), 10 mM nicotinamide (Sigma-Aldrich, cat. N0636), 1X B-27 supplement (Thermo Fisher Scientific, cat. 17504044), 1X N-2 supplement (Thermo Fisher Scientific, cat. 17502048), 10 microM Y-27632 dihydrochloride (Tocris Bioscience, cat. 1254), and 50 ng/mL human EGF recombinant protein (Thermo Fisher Scientific, cat. PHG0311). The 485176-168-R4-J1-PDC line was cultured in Panc media, which includes all 6C/Colon 1B media components plus 100 ng/mL human FGF-10 (Thermo Fisher Scientific, cat. 100-26), 500 nM SB-431542 (Selleckchem, cat. S1067), and gastrin (Tocris, cat. 3006).
[…]
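Further: spheroids exposed to agents for seven days before readout.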
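Wherever viability, T/C is given: percent of vehicle control viability where 100% = DMSO wells.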

With CC1COCCN1c1cc(C2(S(C)(=N)=O)CC2)nc(-c2ccnc3[nH]ccc23)n1 (configuration not stated) + Cc1cnc(CNC(=O)c2c(=O)c3ccc(N4CCCN(C)CC4)nc3n3c2sc2ccccc23)cn1 the IC50 (second compound 0.0316 µM) was over 10 µM, the IC50 (second compound 0.1 µM) was over 10 µM and the IC50 (second compound 0.316 µM) was over 10 µM. The IC50 (second compound 1 µM) was over 10 µM, the IC50 (second compound 3.16 µM) was over 10 µM and the IC50 (second compound 10 µM) was over 10 µM. It also gave a viability, T/C (second compound 0.0316 µM, first compound 0.0316 µM) of 101%, a viability, T/C (second compound 0.0316 µM, first compound 0.1 µM) of 105% and a viability, T/C (second compound 0.0316 µM, first compound 0.316 µM) of 110%. The viability, T/C (second compound 0.0316 µM, first compound 1 µM) was 106%, the viability, T/C (second compound 0.0316 µM, first compound 3.16 µM) was 81.5% and the viability, T/C (second compound 0.0316 µM, first compound 10 µM) was 92.3%. For the same compound, the viability, T/C (second compound 0.1 µM, first compound 0.0316 µM) was 118%, the viability, T/C (second compound 0.1 µM, first compound 0.1 µM) was 105% and the viability, T/C (second compound 0.1 µM, first compound 0.316 µM) was 116%. The viability, T/C (second compound 0.1 µM, first compound 1 µM) was 108%, the viability, T/C (second compound 0.1 µM, first compound 3.16 µM) was 103% and the viability, T/C (second compound 0.1 µM, first compound 10 µM) was 91.2%. For the same compound, the viability, T/C (second compound 0.316 µM, first compound 0.0316 µM) was 114%, the viability, T/C (second compound 0.316 µM, first compound 0.1 µM) was 99% and the viability, T/C (second compound 0.316 µM, first compound 0.316 µM) was 98.3%. For the same compound, the viability, T/C (second compound 0.316 µM, first compound 1 µM) was 87.3%, the viability, T/C (second compound 0.316 µM, first compound 3.16 µM) was 86% and the viability, T/C (second compound 0.316 µM, first compound 10 µM) was 86.7%. It also gave a viability, T/C (second compound 1 µM, first compound 0.0316 µM) of 93.5%, a viability, T/C (second compound 1 µM, first compound 0.1 µM) of 78.5% and a viability, T/C (second compound 1 µM, first compound 0.316 µM) of 81.6%. It also gave a viability, T/C (second compound 1 µM, first compound 1 µM) of 87.2%, a viability, T/C (second compound 1 µM, first compound 3.16 µM) of 90.7% and a viability, T/C (second compound 1 µM, first compound 10 µM) of 67.1%. For the same compound, the viability, T/C (second compound 3.16 µM, first compound 0.0316 µM) was 82%, the viability, T/C (second compound 3.16 µM, first compound 0.1 µM) was 80.4% and the viability, T/C (second compound 3.16 µM, first compound 0.316 µM) was 70.5%. It also gave a viability, T/C (second compound 3.16 µM, first compound 1 µM) of 79.8%, a viability, T/C (second compound 3.16 µM, first compound 3.16 µM) of 83% and a viability, T/C (second compound 3.16 µM, first compound 10 µM) of 60.2%. The viability, T/C (second compound 10 µM, first compound 0.0316 µM) was 72.8%, the viability, T/C (second compound 10 µM, first compound 0.1 µM) was 73.4% and the viability, T/C (second compound 10 µM, first compound 0.316 µM) was 72.6%. The viability, T/C (second compound 10 µM, first compound 1 µM) was 72.1%, the viability, T/C (second compound 10 µM, first compound 3.16 µM) was 78% and the viability, T/C (second compound 10 µM, first compound 10 µM) was 59.5%.

Source: PubChem BioAssay AID2060502 (Molecular Pharmacology Branch, DTP, NCI, 2025)
